Legend:
MDA-MB-436 cells = test: Resazurin viability assay, MDA-MB-436 cells (monotherapy and combination); type: cell-based, human; details: for IC50: MDA-MB-436, 72 h treatment, n = 3
Source text: The MDA-MB-436 cell line was from ATCC. The MDA-MB-436 cell line was established from a pleural effusion of a patient with metastatic breast adenocarcinoma. The cell line is of triple negative breast cancer, however the MDA-MB-436 cell line is classified as mesenchymal stem-like with high enrichment of genes for biological processes such as cell motility (Rho pathway), cellular differentiation and growth pathways (ALK pathway, TGF-β signalling and Wnt/β-catenin pathway). MDA-MB-436 cells were maintained in RPMI-1640 culturing media supplemented with 10% FBS, 0.3 mg/mL L-glutamine and 0.1 mg/mL gentamicin, 10 mcg/mL insulin and incubated in 37° C. humidified atmosphere. Sub-culture using trypsin-EDTA 0.5% every 3-4 days with cell density of 2-3 million cells in a T75 cm2 culturing flask to ensure actively proliferating cells. The MDA-MB-436 cells was seeded in 1×10^4 cells/well. After 24 h of cultivation, when the cells were ˜30-50% confluent, the medium was replaced with serum free growth medium without gentamycin to ensure synchronization of the cells and to increase cell sensitivity to treatment. The MDA-MB-436 cells were starved in starvation media with insulin. The medium was replaced with fresh serum free medium with or without compound 2, NVP-BKM120 (Cayman Chemicals, US). The cells were observed under the microscope to evaluate possible morphology changes and signs of stress before the addition of resazurin according to the manufacturer's instructions (RnD Systems, UK). MDA-MB-436 cells were incubated for 72 h. Resazurin was metabolized for 1-2 h (37° C., 5% CO2) before fluorescence was read at 544 nm excitation and 590 nm emission wavelength (BioTek Synergy HT). The experiments were performed in series of eight wells per treatment and repeated 2-3 times. […] Statistical significance between treatments were determined using Welch's ANOVA with Tamhane's T2 correction for multiple comparisons, p<0.05 was considered statistically significant.

CCRF-CEM cells = test: Resazurin viability assay, CCRF-CEM cells (combination, Bliss Independence CI); type: cell-based, human; details: 0.5 μm of BKM120 as used in combination, FIG. 1, CCRF-CEM
Description: The CCRF-CEM (ATCC CCL-119) cell line is derived from T lymphoblasts from peripheral blood of a child with acute leukaemia. The cells were grown according to the recommendations of the supplier. The culture medium, RPMI-1640, was supplemented with 10 μL/mL glutamine, 2 μL/mL gentamicin and 10% foetal bovine serum (FBS) to make complete growth medium (CGM). The cells were incubated at 37 °C in a humidified atmosphere with 5% CO2. Passaging was conducted every 2 - 4 days to maintain a cell density below 2.5×10^6 cells/mL, and thus ensure a continuous proliferation. Cells were allowed to acclimatise for two weeks after establishment before they were utilised for experimental purposes and discarded after three months. […] Resazurin was metabolized for 1-2 h (37° C., 5% CO2) before fluorescence was read at 544 nm excitation and 590 nm emission wavelength (BioTek Synergy HT). […] Statistical significance between treatments were determined using Welch's ANOVA with Tamhane's T2 correction for multiple comparisons, p<0.05 was considered statistically significant. […] The combination index was calculated using: [formula] • where CI is the combination index, EA represent the effect of drug A given as a monotherapy, EB represent the effect of drug B given as a monotherapy and EAB represent drugs A and B given in combination at the same concentrations as the monotherapies. […]

Row | IC50 (MDA-MB-436 cells; Homo sapiens) [µM] | Compound | viability at 0.4 µM (MDA-MB-436 cells; Homo sapiens, 72 h, BKM120 0.4 μM alone, MDA-MB-436, relative to untreated control set to 100%) [%] | viability at 1.1 µM (MDA-MB-436 cells; Homo sapiens, 72 h, BKM120 1.1 μM alone, MDA-MB-436, relative to untreated control set to 100%) [%] | expected inhibition (CCRF-CEM cells) [%] | viability at 5 µM (MDA-MB-436 cells; Homo sapiens, 72 h, Cmpd 2 5 μM alone, MDA-MB-436, relative to untreated control set to 100%) [%] | viability at 6.5 µM (MDA-MB-436 cells; Homo sapiens, 72 h, Cmpd 2 6.5 μM alone, MDA-MB-436, relative to untreated control set to 100%) [%] | viability at 7.5 µM (MDA-MB-436 cells; Homo sapiens, 72 h, Cmpd 2 7.5 μM alone, MDA-MB-436, relative to untreated control set to 100%) [%] | viability at 10 µM (MDA-MB-436 cells; Homo sapiens, 72 h, Cmpd 2 10 μM alone, MDA-MB-436, relative to untreated control set to 100%) [%] | concentration at which viability was reduced significantly compared to the untreated control (MDA-MB-436 cells; MDA-MB-436, 72 h, control set to 100% viability) [µM]
1 | 1.2 | Nc1cc(C(F)(F)F)c(-c2cc(N3CCOCC3)nc(N3CCOCC3)n2)cn1 [BKM120, buparlisib, reference compound] | 84 ± 7 | 45 ± 10 | 10 | – | – | – | – | –
2 | 10.4 | CCCCCCCOc1ccc(OCC(=O)c2nc(C(=O)OC)cs2)cc1 [Compound 2] | – | – | – | 92 ± 3 | 82 ± 6 | 76 ± 4 | 60 ± 10 | ≥ 9

Reference: patent US20220304985A1, “COMBINATION THERAPY FOR PROLIFERATIVE CONDITIONS” (Avexxin AS, priority 2019, published 2022)
